Results from patent publication US20260334439A1, “BCAT2 INHIBITORS” (Agios Pharmaceuticals, Inc., priority 2023, published 2026).

Tests used:
BCAT2 [1] = biological target: T1, BCAT2 (Homo sapiens, UniProt O15382); assay: BCAT2 in vitro enzyme inhibition assay (hBCAT2, glutamate dehydrogenase/diaphorase/resazurin coupled fluorescence read); assay type: biochemical; details: hBCAT2, 1 h preincubation at 25° C., one hour reaction; average where tested multiple times
T1 sequence (O15382 28-392): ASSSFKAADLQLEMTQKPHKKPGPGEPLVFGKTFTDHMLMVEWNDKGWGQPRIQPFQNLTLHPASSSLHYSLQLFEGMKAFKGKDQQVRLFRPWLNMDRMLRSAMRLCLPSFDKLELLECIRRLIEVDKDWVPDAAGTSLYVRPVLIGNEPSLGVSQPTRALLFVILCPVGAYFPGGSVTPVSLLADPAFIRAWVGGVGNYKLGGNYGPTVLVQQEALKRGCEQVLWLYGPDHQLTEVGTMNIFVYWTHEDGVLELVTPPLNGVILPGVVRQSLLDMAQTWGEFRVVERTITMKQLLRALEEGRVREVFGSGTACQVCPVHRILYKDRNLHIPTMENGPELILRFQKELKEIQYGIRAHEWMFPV
How it was run: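 Coupled GDH/diaphorase/resazurin fluorescence (Ex 540/Em 590) read after 1 h reaction at 25 °C, SDS-stopped; enzyme (0.33 μg/mL in mix) first preincubated 1 h with compound, 10-point 3-fold series from 100 μM final, Tris pH 8.0 buffer with NaCl, BSA; technical duplicates, averaged across tests.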

BCAT2 [2] = biological target: T1, BCAT2; assay: BCAT2 cell inhibition using engineered A549 cells (MUT KO, BCAT1 KO; 13C6-KMV formation by LC-MS/MS); assay type: cell-based; parameters: expressed endogenous BCAT2; endogenous in cells; host or cells: A549 cells, MUT knockout and BCAT1 knockout
How it was run: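 Medium 13C6-KMV formation is read by LC-MS/MS after PFBHA derivatization with d8-KMV internal standard. Cells are CRISPR MUT/BCAT1 double-knockout A549 expressing endogenous BCAT2, given compound 15 min before labelled isoleucine (800 uM, added 1:1) for 24 h. CTG viability run in parallel; replicates averaged.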

Structure (SMILES) | IC50 (BCAT2 [1]) | IC50 (BCAT2 [2])
O=C(N[C@H]1CCC[C@@H](n2c(-c3ccccc3F)nc3cnc(-c4ncn(C(F)F)n4)cc32)[C@@H]1O)c1cc(Cl)ccn1 [compound 118] | < 0.1 µM | < 0.1 µM
O=C(N[C@H]1CCC[C@@H](n2c(-c3ncccc3F)nc3cnc(-c4nc[nH]n4)cc32)C1)c1cc(F)ccn1 [Example 16, 4-fluoro-N-((1S,3R)-3-(2-(3-fluoropyridin-2-yl)-6-(1H-1,2,4-triazol-3-yl)-1H-imidazo[4,5-c]pyridin-1-yl)cyclohexyl)picolinamide] | < 0.1 µM | 0.1 to 0.5 µM
COc1ccc(Cl)cc1C(=O)N[C@H]1CCCC[C@@H](n2c(-c3ccccc3F)nc3cnc(-c4nc[nH]n4)cc32)[C@@H]1O [Example 105, 5-chloro-N-((1S,2R,3R)-3-(2-(2-fluorophenyl)-6-(1H-1,2,4-triazol-3-yl)-1H-imidazo[4,5-c]pyridin-1-yl)-2-hydroxycycloheptyl)-2-methoxybenzamide] | < 0.1 µM | < 0.1 µM
CO[C@H]1C[C@H](N2Cc3ccc(F)cc3C2=O)C[C@H](n2c(-c3ccccc3OCCO)nc3ccc(-c4ncccn4)cc32)C1 [Example 194, 6-fluoro-2-((1R,3S,5R)-3-(2-(2-(2-hydroxyethoxy)phenyl)-6-(pyrimidin-2-yl)-1H-benzo[d]imidazol-1-yl)-5-methoxycyclohexyl)isoindolin-1-one] | < 0.1 µM | < 0.1 µM
COc1ncc(Cl)cc1C(=O)N[C@H]1CCC[C@@H](n2c(-c3ccccc3F)nc3cnc(-c4nc[nH]n4)cc32)C1 [Example 22, 5-chloro-N-((1S,3R)-3-(2-(2-fluorophenyl)-6-(1H-1,2,4-triazol-3-yl)-1H-imidazo[4,5-c]pyridin-1-yl)cyclohexyl)-2-methoxynicotinamide] | < 0.1 µM | < 0.1 µM
O=C(N[C@H]1CCC[C@@H](n2c(-c3ccccc3OCCO)nc3cnc(-c4nc[nH]n4)cc32)C1)c1cc(F)ccc1F [Example 85, 2,5-difluoro-N-((1S,3R)-3-(2-(2-(2-hydroxyethoxy)phenyl)-6-(1H-1,2,4-triazol-3-yl)-1H-imidazo[4,5-c]pyridin-1-yl)cyclohexyl)benzamide] | < 0.1 µM | 0.1 to 0.5 µM
O=C1c2cc(F)ccc2CN1[C@H]1CCC[C@@H](n2c(-c3ccccc3F)nc3cnc(-c4nc[nH]n4)cc32)C1 [Example 169, 6-fluoro-2-((1S,3R)-3-(2-(2-fluorophenyl)-6-(1H-1,2,4-triazol-3-yl)-1H-imidazo[4,5-c]pyridin-1-yl)cyclohexyl)isoindolin-1-one] | < 0.1 µM | < 0.1 µM
O=C(N[C@H]1CCC[C@@H](n2c(-c3ccccc3F)nc3cnc(-c4nc[nH]n4)cc32)C1)c1ncccc1Cl [Example 10, 3-chloro-N-((1S,3R)-3-(2-(2-fluorophenyl)-6-(1H-1,2,4-triazol-3-yl)-1H-imidazo[4,5-c]pyridin-1-yl)cyclohexyl)picolinamide] | < 0.1 µM | 0.5 to 1 µM
O=C(N[C@H]1CCC[C@@H](n2c(-c3ccccc3F)nc3cnc(-c4nc[nH]n4)cc32)C1)c1cc(F)ccc1F [Example 58, 2,5-difluoro-N-((1S,3R)-3-(2-(2-fluorophenyl)-6-(1H-1,2,4-triazol-3-yl)-1H-imidazo[4,5-c]pyridin-1-yl)cyclohexyl)benzamide] | < 0.1 µM | < 0.1 µM
O=C(N[C@H]1CCC[C@@H](n2c(-c3ccccc3F)nc3ccc(-c4nc[nH]n4)cc32)C1)c1cc(F)ccn1 [Example 226, 4-fluoro-N-((1S,3R)-3-(2-(2-fluorophenyl)-6-(1H-1,2,4-triazol-3-yl)-1H-benzo[d]imid-azol-1-yl)cyclohexyl)picolin-amide] | < 0.1 µM | 0.1 to 0.5 µM
CN1C[C@H](NC(=O)c2cc(Cl)ccn2)C[C@H](n2c(-c3ccccc3OC(F)F)nc3cnc(-c4nc[nH]n4)cc32)C1 [compound 141] | < 0.1 µM | < 0.1 µM
O=c1c2cc(F)ccc2ncn1[C@H]1CCC[C@@H](n2c(-c3ccccc3F)nc3cnc(-c4nc[nH]n4)cc32)C1 [Example 209, 6-fluoro-3-((1S,3R)-3-(2-(2-fluorophenyl)-6-(1H-1,2,4-triazol-3-yl)-1H-imidazo[4,5-c]pyridin-1-yl)cyclohexyl)quinazolin-4(3H)-one] | < 0.1 µM | < 0.1 µM
O=C1c2cc(Cl)ccc2OCN1[C@H]1CCC[C@@H](n2c(-c3ccccc3F)nc3cnc(-c4nc[nH]n4)cc32)[C@@H]1O [Example 213, 6-chloro-3-((1S,2S,3R)-3-(2-(2-fluorophenyl)-6-(1H-1,2,4-triazol-3-yl)-1H-imidazo[4,5-c]pyridin-1-yl)-2-hydroxycyclohexyl)-2,3-dihydro-4H-benzo[e][1,3]oxazin-4-one] | < 0.1 µM | < 0.1 µM
CC(C)(O)COc1ccc(Cl)cc1C(=O)N[C@H]1CCC[C@@H](n2c(-c3ccccc3F)nc3cnc(-n4nccn4)cc32)C1 [Example 71, 5-chloro-N-((1S,3R)-3-(2-(2-fluorophenyl)-6-(2H-1,2,3-triazol-2-yl)-1H-imidazo[4,5-c]pyridin-1-yl)cyclohexyl)-2-(2-hydroxy-2-methylpropoxy)benzamide] | < 0.1 µM | < 0.1 µM
O=C1c2cc(Cl)ccc2CN1[C@H]1CCC[C@@H](n2c(-c3ccccc3F)nc3cnc(-c4nc[nH]n4)cc32)C1 [Example 168, 6-chloro-2-((1S,3R)-3-(2-(2-fluorophenyl)-6-(1H-1,2,4-triazol-3-yl)-1H-imidazo[4,5-c]pyridin-1-yl)cyclohexyl)isoindolin-1-one] | < 0.1 µM | < 0.1 µM
CC(C)Oc1ccc(Cl)cc1C(=O)N[C@H]1CCC[C@@H](n2c(-c3ccccc3C#N)nc3cnc(-c4nc[nH]n4)cc32)C1 [Example 36, 5-chloro-N-((1S,3R)-3-(2-(2-cyanophenyl)-6-(1H-1,2,4-triazol-3-yl)-1H-imidazo[4,5-c]pyridin-1-yl)cyclohexyl)-2-isopropoxybenzamide] | < 0.1 µM | < 0.1 µM
N#Cc1ccc(F)c(C(=O)N[C@H]2CCC[C@@H](n3c(-c4ccccc4F)nc4cnc(-c5nc[nH]n5)cc43)C2)c1 [Example 77, 5-cyano-2-fluoro-N-((1S,3R)-3-(2-(2-fluorophenyl)-6-(1H-1,2,4-triazol-3-yl)-1H-imidazo[4,5-c]pyridin-1-yl)cyclohexyl)benzamide] | < 0.1 µM | 0.1 to 0.5 µM
COc1ccc(C#N)cc1C(=O)N[C@H]1CCC[C@@H](n2c(-c3ccccc3F)nc3cnc(-c4nc[nH]n4)cc32)C1 [Example 33, 5-cyano-N-((1S,3R)-3-(2-(2-fluorophenyl)-6-(1H-1,2,4-triazol-3-yl)-1H-imidazo[4,5-c]pyridin-1-yl)cyclohexyl)-2-methoxybenzamide] | < 0.1 µM | 0.5 to 1 µM
O=C(N[C@H]1CCC[C@@H](n2c(-c3ccccc3F)nc3cnc(-c4nc[nH]n4)cc32)C1)c1cc(Cl)ccc1CO [Example 40, 5-chloro-N-((1S,3R)-3-(2-(2-fluorophenyl)-6-(1H-1,2,4-triazol-3-yl)-1H-imidazo[4,5-c]pyridin-1-yl)cyclohexyl)-2-(hydroxymethyl)benzamide] | < 0.1 µM | 0.1 to 0.5 µM
CN1C[C@H](NC(=O)c2cc(F)ccn2)C[C@H](n2c(-c3ccccc3F)nc3cnc(-c4nc[nH]n4)cc32)C1 [Example 134, 4-fluoro-N-((3R,5S)-5-(2-(2-fluorophenyl)-6-(1H-1,2,4-triazol-3-yl)-1H-imidazo[4,5-c]pyridin-1-yl)-1-methylpiperidin-3-yl)picolinamide] | < 0.1 µM | 0.1 to 0.5 µM
